pIC50: −log10 of the molar value. ≈ marks a conversion by molar mass, not a printed value.
Key:
[1] = tested on: S. aureus biofilm; experiment: Biofilm determination by crystal violet staining; format: cell-based
Protocol: Biofilm determination by crystal violet staining. The biofilm was formed as described above. The planktonic (non-adherent) bacteria were removed by washing the wells with PBS. Added a solution of 0.15% (wt/vol) crystal violet to each well and incubated for 15 min at room temperature. Then, the plates were gently wash with PBS to remove excess crystal violet. One hundred microliters of ethanol were added to each well to solubilize the crystal violet that has bound to the biofilm. The absorbance at 570nm (A570nm) of the solubilized crystal violet was measured with a microplate reader^6.
Biofilm determination by XTT assay. To determine the biofilm inhibition, overnight cultures of S. aureus were diluted with TSB containing 2-fold diluted antimicrobials at the ratio of 1: 100 and added to a 96-well plate. After incubation statically at 37 ℃ for 24h, the supernatant was carefully removed and washed with PBS. (2,3-Bis-(2-methoxy-4-nitro-5-sulfophenyl)-2H-tetrazolium-5-carboxanilide) (XTT, 0.2 mg/ml) and Phenazin (methylsufate) (PMS, 0.02 mg/ml) were mixed with 1× PBS and added to each well of the 96-well plate (100 μL/well). The plate was then incubated for 3h in the dark, and the absorbance was measured at 490 nm (A490nm). For biofilm eradication, overnight cultures of S. aureus were diluted with fresh TSB at 1:100 and incubated for 24h to pre-form biofilms. […]

[2] = tested on: S. aureus biofilm; experiment: Biofilm determination by XTT assay; format: cell-based
Protocol: Biofilm determination by XTT assay. To determine the biofilm inhibition, overnight cultures of S. aureus were diluted with TSB containing 2-fold diluted antimicrobials at the ratio of 1: 100 and added to a 96-well plate. After incubation statically at 37 ℃ for 24h, the supernatant was carefully removed and washed with PBS. (2,3-Bis-(2-methoxy-4-nitro-5-sulfophenyl)-2H-tetrazolium-5-carboxanilide) (XTT, 0.2 mg/ml) and Phenazin (methylsufate) (PMS, 0.02 mg/ml) were mixed with 1× PBS and added to each well of the 96-well plate (100 μL/well). The plate was then incubated for 3h in the dark, and the absorbance was measured at 490 nm (A490nm). For biofilm eradication, overnight cultures of S. aureus were diluted with fresh TSB at 1:100 and incubated for 24h to pre-form biofilms. Subsequently, the supernatant was removed and washed with PBS, and 200 μL of TSB in the presence of 2-fold diluted antimicrobials was added to each well. After incubation at 37 ℃ for 24h, the supernatant was removed and stained with XTT as described above^7.

[3] = tested on: S. aureus ATCC 43300; experiment: Periprosthetic joint infection (PJI) model; format: in vivo, ICR mice; conditions: i.p.
[4] = tested on: S. aureus; experiment: Peritonitis-sepsis model; format: in vivo, ICR mice; conditions: i.p., 24 h postinfection
Protocol: Peritonitis-sepsis model. Six to seven-week-old female ICR mice were included. […] Mice were injected with 500 μL of the suspension in the presence of 5% mucin by i.p.. An hour post-infection, the mice were administered with: 1) EL+ethanol, 2) […]-0546 (30 mg/kg), and 3) STK848198 (30 mg/kg) alone or in combination with ampicillin (AMP, 25 mg/kg)^38 or amikacin (AMK, 25 mg/kg).

[5] = molecular target: T1, hERG (Homo sapiens, UniProt Q12809); experiment: hERG patch clamp; format: cell-based; conditions: HEK293 cells expressing hERG channels, pH 7.4, hERG potassium channels
T1 construct: expressed in transfected cells; host or cells: HEK293
T1 sequence (Q12809 whole entry): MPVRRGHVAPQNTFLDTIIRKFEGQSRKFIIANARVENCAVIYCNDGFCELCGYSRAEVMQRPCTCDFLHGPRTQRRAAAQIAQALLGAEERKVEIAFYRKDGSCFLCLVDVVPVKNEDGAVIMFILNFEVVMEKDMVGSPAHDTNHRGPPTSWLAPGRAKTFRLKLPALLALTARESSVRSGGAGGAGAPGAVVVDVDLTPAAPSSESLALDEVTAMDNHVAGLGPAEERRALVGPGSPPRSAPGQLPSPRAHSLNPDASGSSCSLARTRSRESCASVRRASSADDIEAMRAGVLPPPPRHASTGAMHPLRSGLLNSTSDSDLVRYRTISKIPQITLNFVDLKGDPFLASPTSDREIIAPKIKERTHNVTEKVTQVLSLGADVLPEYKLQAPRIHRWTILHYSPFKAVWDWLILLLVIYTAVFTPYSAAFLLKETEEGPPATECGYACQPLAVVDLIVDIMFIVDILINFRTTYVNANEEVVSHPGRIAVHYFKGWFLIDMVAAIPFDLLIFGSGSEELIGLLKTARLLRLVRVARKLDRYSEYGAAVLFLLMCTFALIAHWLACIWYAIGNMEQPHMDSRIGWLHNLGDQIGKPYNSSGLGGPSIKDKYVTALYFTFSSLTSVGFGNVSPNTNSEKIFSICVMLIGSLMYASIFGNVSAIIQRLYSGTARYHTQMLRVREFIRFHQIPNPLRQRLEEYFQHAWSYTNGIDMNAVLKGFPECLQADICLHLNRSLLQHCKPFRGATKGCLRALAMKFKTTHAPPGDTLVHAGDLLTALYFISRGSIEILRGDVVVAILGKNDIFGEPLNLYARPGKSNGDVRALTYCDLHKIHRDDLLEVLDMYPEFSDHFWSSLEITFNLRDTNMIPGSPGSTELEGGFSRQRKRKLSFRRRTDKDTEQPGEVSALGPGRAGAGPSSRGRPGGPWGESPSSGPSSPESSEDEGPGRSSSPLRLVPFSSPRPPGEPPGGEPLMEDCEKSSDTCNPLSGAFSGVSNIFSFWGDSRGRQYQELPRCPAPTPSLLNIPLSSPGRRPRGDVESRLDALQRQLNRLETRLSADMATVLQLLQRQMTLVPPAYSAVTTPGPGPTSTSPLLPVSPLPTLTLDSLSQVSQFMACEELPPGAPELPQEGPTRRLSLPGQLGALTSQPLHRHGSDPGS
Protocol: hERG. hERG channels expressed HEK293 cell line was cultured in DMEM at 37℃ with 10% FBS to ~70% of log phase. Then, the cells were washed with PBS and digested with trypsin. After incubation at 37 ℃ for 2-3 min, the cells were washed again and adjusted to ~ 2×10^3/mL. The patch clamp detection experiment was performed after the cells attached to the cell wall. The extracellular fluid was prepared as 137 mM NaCl,1 mM MgCl2‧6H2O, 4 mM KCl,1.8 mM CaCl2‧2H2O, 10 mM D-Glucose, 10 mM HEPES, pH=7.4. And the intracellular fluid was prepared as 140 mM KCl,10 mM EGTA, 5 mM MgCl2‧6H2O, 10 mM HEPES, 5 mM Mg-ATP, pH=7.2. The current data was collected by using Pathmaster software. And the peak current inhibition rate was calculated as: (1−Peak tail current compoundPeak tail current veℎicle). The concentration-effects were fitted by the Hill equation: I=Imax∙(1/［1+（C1/2/［C］）^h), where [C], C1/2, and h represented the drug concentration, half inhibitory concentration (IC50), Hill coefficient, respectively^19.

[6] = tested on: RAW264.7; experiment: Inflammatory factors inhibition; format: cell-based; conditions: LPS-treated RAW264.7, 16 μg/mL, 12 h
Protocol: Inflammatory factors inhibition by compounds. Cell line of RAW264.7 was cultured in DMEM medium with 10% FBS. After incubation at 37 ℃ 5% CO2 to log phase, the attached cells were washed with 1× PBS and added with 1 μg/mL of LPS. After incubation at 37 ℃ 5% CO2 for 30 min, 16 μg/mL of C218-0546 or STK848198 was added to each well. The cells were further cultured for 12h, and the cell precipitate was collected for qRT-PCR while the supernatant was collected for ELISA.
For gene expression determination. One milliliter of Trizol was added to lysis the cells. Then, the suspension was incubated with 200 μL chloroform for 3 min. After centrifugation at 12000 rpm 4℃ for 15 min, the aqueous phase was removed to RNase-free tubes, and added with equal volume of isopropanol. After centrifugation at 12000 rpm 4℃, the RNA precipitation was collected and wash with 75% ethanol. […] Absorbance at 260nm and 280 nm was detected to determine the RNA concentration and purity. cDNA was synthesized with HiFiScript cDNA Synthesis Kit (CoWin Biosciences, Beijing, China) according to the manufacture’s specification, and UltraSYBR Mixture (2×, CoWin Biosciences, Beijing, China) was used for qPCR determination.
ELISA kit (Proteintech, Wuhan, China) was used for cytokines production quantification. […] Then, 100 μL substrate was added to each well and the absorbance at 450 nm was determined.

[7] = Plasma protein binding rate; format: in vitro ADME; conditions: human plasma
Protocol: Plasma protein binding rate calculation. Human plasma was purchased from IPHASE (Beijing, China). C218-0546 or STK848198 was added into human plasma to a final concentration of 0.5, 2 and 5 μg/mL, respectively. Warfarin sodium and PBS was used as positive control and blank control, respectively. The samples were added to the upper side of the dialysis membrane (IPHASE, Beijing, China) and PBS was added to its lower side. After incubation at room temperature for 12h, the concentration of C218-0546 and STK848198 at the both sides were detected by the LC-MS. The plasma protein binding rate (%) was calculated as: (1-Cf/Cp) × 100%. Cf, concentration of free compounds (lower side). Cp, plasma protein binding compounds (upper side).

[8] = tested on: S. aureus; experiment: MIC determination by microbroth dilution; format: cell-based, Staphylococcus aureus; conditions: Staphylococcus aureus; structure-activity relationship of C218-0546 analogs (Figure S1); read-out: MIC
Protocol: Minimal inhibitory concentration (MIC) determination. The detection of MIC was performed by the microbroth dilution method with reference to the previously report by Wang et al^2. Briefly, the fresh bacterial suspension was adjusted to a McF standard equivalent of 0.5 (~1.5 × 10^8 CFU/mL) and then 100-fold diluted with MH broth. Fifty microliters of bacterial suspension with equal volume of serially diluted compounds (1-128 µg/mL) were added into a 96-well cell plate (Corning Costar, the United States) and incubated at 37°C for 16-18 h. The bacterial suspension without compounds was used as a negative control. The lowest concentration that inhibited visible bacterial growth was considered as the value of MIC.

Cc1nc2c(-c3ccc(Cl)cc3)cnn2c(O)c1Cc1ccccc1 [STK848198]
concentration inhibiting biofilm biomass formation ([1]; biofilm inhibition): 0.25 µg/mL | concentration eradicating preformed biofilm biomass ([1]; preformed biofilm): 2 µg/mL | concentration inhibiting biofilm viability ([2]; biofilm inhibition): 0.125 µg/mL | concentration reducing preformed biofilm viability ([2]; preformed biofilm): 0.5 µg/mL | bacterial viable cell loads in infected joint ([3]; day 5, AMP 25 mg/kg combined with STK848198 30 mg/kg): effectively reduce the bacterial viable cell loads | bacterial loads in the joint and its surrounding tissue ([3]; day 7, alone or in combination): reduce the bacterial loads | bacterial loads in liver, spleen, lung, and kidney ([4]; STK848198 30 mg/kg combined with AMP 25 mg/kg): significantly reduced the bacterial loads | bacterial loads in organs ([4]; single use, vs vehicle): no statistical difference | pIC50 [5]: < 4.52 | inflammatory cytokines production (IL-1β, IL-6, TNFα decreased, IL-10 enhanced) [6]: inhibit inflammatory progress | plasma protein binding rate [7]: high | MIC [8]: 2 µg/mL (≈ 5.72 µM)

— publication PMC11707430, “Novel antibiotics against Staphylococcus aureus without detectable resistance by targeting proton motive force and FtsH” (MedComm, 2025)
